Measurements from patent publication US9718828B2 (MERCK SHARP & DOHME CORP., priority 2011, dated 2017).
Counter-ions that a name gives are not always drawn.

The compounds below were run against Btk enzyme (His-Btk) (Homo sapiens (Human), UniProt Q06187) (assay: Btk enzyme activity, IMAP fluorescence polarization assay (Assay Method A)). Conditions: not given.
Btk enzyme (His-Btk), sequence (Q06187 whole entry): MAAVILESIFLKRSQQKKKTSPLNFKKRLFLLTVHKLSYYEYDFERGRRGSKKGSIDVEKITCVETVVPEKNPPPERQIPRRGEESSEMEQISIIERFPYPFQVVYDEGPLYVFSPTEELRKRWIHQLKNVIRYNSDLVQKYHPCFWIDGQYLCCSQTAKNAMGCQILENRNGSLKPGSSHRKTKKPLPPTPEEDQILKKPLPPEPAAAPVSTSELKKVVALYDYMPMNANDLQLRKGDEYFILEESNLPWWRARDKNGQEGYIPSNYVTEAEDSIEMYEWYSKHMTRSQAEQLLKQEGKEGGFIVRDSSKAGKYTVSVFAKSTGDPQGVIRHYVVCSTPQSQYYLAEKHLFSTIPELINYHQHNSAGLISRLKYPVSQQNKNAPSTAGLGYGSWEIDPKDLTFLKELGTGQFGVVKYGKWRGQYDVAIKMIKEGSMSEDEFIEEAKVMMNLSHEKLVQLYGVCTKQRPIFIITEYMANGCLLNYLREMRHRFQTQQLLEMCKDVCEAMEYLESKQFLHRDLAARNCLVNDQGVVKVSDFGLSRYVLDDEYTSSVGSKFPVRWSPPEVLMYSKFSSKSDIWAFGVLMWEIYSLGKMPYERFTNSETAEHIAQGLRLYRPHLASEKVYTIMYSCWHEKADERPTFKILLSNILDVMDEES
`CCC(F)(F)C(=O)N1CCC[C@@H](c2nc(-c3ccc(C(=O)Nc4ccccn4)cc3)c3c(N)nccn23)C1` [Example 93, (R)-4-(8-amino-3-(1-(2,2-difluorobutanoyl)piperidin-3-yl)imidazo[1,5-a]pyrazin-1-yl)-N-(pyridin-2-yl)benzamide] was tested, and the EC50 was 10 to 100 nM. Compound `Nc1nccn2c(C3CCOCC3)nc(-c3ccc(C(=O)Nc4ccccn4)cc3)c12` [Example 27, 4-(8-amino-3-(tetrahydro-2H-pyran-4-yl)imidazo[1,5-a]pyrazin-1-yl)-N-(pyridin-2-yl)benzamide] has an EC50 of 10 to 100 nM. In the case of `CS(=O)(=O)CCC(=O)N1CCC[C@@H](c2nc(-c3ccc(C(=O)Nc4cc(C(F)(F)F)ccn4)cc3)c3c(N)nccn23)C1` [Example 77, (R)-4-(8-amino-3-(1-(3-(methylsulfonyl)propanoyl)piperidin-3-yl)imidazo[1,5-a]pyrazin-1-yl)-N-(4-(trifluoromethyl)pyridin-2-yl)benzamide], the EC50 is reported as less than 10 nM. In the case of `Nc1nccn2c([C@@H]3CCCN(C(=O)C4CN(C(=O)c5ccccc5)C4)C3)nc(-c3ccc(C(=O)Nc4cc(C(F)(F)F)ccn4)cc3)c12` [Example 84, (R)-4-(8-amino-3-(1-(1-benzoylazetidine-3-carbonyl)piperidin-3-yl)imidazo[1,5-a]pyrazin-1-yl)-N-(4-(trifluoromethyl)pyridin-2-yl)benzamide], the EC50 is reported as less than 10 nM. With `CS(=O)(=O)N1CC(C(=O)N2CCC[C@@H](c3nc(-c4ccc(C(=O)Nc5cc(C(F)(F)F)ccn5)cc4)c4c(N)nccn34)C2)C1` [Example 73, (R)-4-(8-amino-3-(1-(1-(methylsulfonyl)azetidine-3-carbonyl)piperidin-3 yl)imidazo[1,5-a]pyrazin-1-yl)-N-(4-(trifluoromethyl)pyridin-2-yl)benzamide] the EC50 was less than 10 nM. For `Nc1nccn2c([C@@H]3CCCN(C(=O)C4(O)CC4)C3)nc(-c3ccc(C(=O)Nc4ccccn4)cc3)c12` [Example 94, (R)-4-(8-amino-3-(1-(1-hydroxycyclopropanecarbonyl)piperidin-3-yl)imidazo[1,5-a]pyrazin-1-yl)-N-(pyridin-2-yl)benzamide], the EC50 was 10 to 100 nM. `COC1CN(c2nc(-c3ccc(C(=O)Nc4ccccn4)cc3)c3c(N)nccn23)C1` [Example 217, 4-(8-amino-3-(3-methoxyazetidin-1-yl)imidazo[1,5-a]pyrazin-1-yl)-N-(pyridin-2-yl)benzamide] gave an EC50 of 100 to 1000 nM. In the case of `Nc1nccn2c([C@@H]3CCCN(C(=O)C4CCOC4)C3)nc(-c3ccc(C(=O)Nc4ccccn4)cc3)c12` (stereo partly drawn) [Example 56, 4-(8-amino-3-((3R)-1-(tetrahydrofuran-3-carbonyl)piperidin-3-yl)imidazo[1,5-a]pyrazin-1-yl)-N-(pyridin-2-yl)benzamide, TFA salt], the EC50 is reported as 10 to 100 nM. Compound `CCC(=O)N1C2CCC1C(c1nc(-c3ccc(C(=O)Nc4ccccn4)cc3)c3c(N)nccn13)C2` (centres unmarked) [Example 147, 4-(8-amino-3-(7-propionyl-7-azabicyclo[2.2.1]heptan-2-yl)imidazo[1,5-a]pyrazin-1-yl)-N-(pyridin-2-yl)benzamide] has an EC50 of 100 to 1000 nM.

Same assay, conditions: read-out: EC50 Btk activity values - Assay Method A; IMAP-FP, 60 min pre-incubation, 5 μM ATP; class 100-1000 is given as ≧100 nM-<1 μM
`CC(C)(F)C(=O)N1CCC[C@@H](c2nc(-c3ccc(C(=O)Nc4cc(C(F)(F)F)ccn4)cc3)c3c(N)ncnn23)C1` [Example 257, (R)-4-(4-amino-7-(1-(2-fluoro-2-methylpropanoyl)piperidin-3-yl)imidazo[1,5-f][1,2,4]triazin-5-yl)-N-(4-(trifluoromethyl)pyridin-2-yl)benzamide] showed an EC50 of less than 10 nM. For `Nc1nccn2c(N3CCCC(C(=O)NCC4CC4)C3)nc(-c3ccc(C(=O)Nc4cc(C(F)(F)F)ccn4)cc3)c12` (centres unmarked) [Example 233, 1-(8-amino-1-(4-(4-(trifluoromethyl)pyridin-2-ylcarbamoyl)phenyl)imidazo[1,5-a]pyrazin-3-yl)-N-(cyclopropylmethyl)piperidine-3-carboxamide, TFA salt], the EC50 was less than 10 nM. With `CCCc1ccnc(NC(=O)c2ccc(-c3nc([C@H]4CC[C@@H](OC)CC4)n4ccnc(N)c34)cc2)c1` [Example 42, 4-(8-amino-3-((cis)-4-methoxycyclohexyl)imidazo [1,5-a]pyrazin-1-yl)-N-(4-propylpyridin-2-yl)benzamide] the EC50 was less than 10 nM. `CCOCCC(=O)N1C[C@H](c2nc(-c3ccc(C(=O)Nc4ccccn4)cc3)c3c(N)nccn23)CC[C@@H]1C` (relative stereo) [Example 206, 4-(8-amino-3-((cis)-1-(3-ethoxypropanoyl)-6-methylpiperidin-3-yl)imidazo[1,5-a]pyrazin-1-yl)-N-(pyridin-2-yl)benzamide, TFA salt] gave an EC50 of less than 10 nM. In the case of `CCC(=O)N1CCSC(c2nc(-c3ccc(C(=O)Nc4cc(C(F)(F)F)ccn4)cc3)c3c(N)nccn23)C1` (centres unmarked) [Example 172, 4-(8-amino-3-(4-propionylthiomorpholin-2-yl)imidazo[1,5-a]pyrazin-1-yl)-N-(4-(trifluoromethyl)pyridin-2-yl)benzamide], the EC50 is reported as less than 10 nM. `CSCCC(=O)N1CCC[C@@H](n2nc(-c3ccc(C(=O)Nc4cc(C(F)(F)F)ccn4)cc3)c3c(N)ncnc32)C1` [Example 276, (R)-4-(4-amino-1-(1-(3-(methylthio)propanoyl)piperidin-3-yl)-1H-pyrazolo[3,4-d]pyrimidin-3-yl)-N-(4-(trifluoromethyl)pyridin-2-yl)benzamide] was tested, and the EC50 was less than 10 nM. In the case of `Nc1nccn2c([C@@H]3CCCN(C(=O)Nc4ccccc4Cl)C3)nc(-c3ccc(C(=O)Nc4cc(C5CC5)ccn4)cc3)c12` [Example 120, (R)-3-(8-amino-1-(4-(4-cyclopropylpyridin-2-ylcarbamoyl)phenyl)imidazo [1,5-a]pyrazin-3-yl)-N-(2-chlorophenyl)piperidine-1-carboxamide], the EC50 is reported as less than 10 nM. Work on `C[C@H]1CC[C@@H](c2nc(-c3ccc(C(=O)Nc4ccccn4)cc3)c3c(N)nccn23)CN1C(=O)C1CC(F)(F)C1` (relative stereo) [Example 203, 4-(8-amino-3-((cis)-1-(3,3-difluorocyclobutanecarbonyl)-6-methylpiperidin-3-yl)imidazo[1,5-a]pyrazin-1-yl)-N-(pyridin-2-yl)benzamide, TFA salt] yielded an EC50 of less than 10 nM. Compound `CONC(=O)C1CCCN(c2nc(-c3ccc(C(=O)Nc4cc(C5CC5)ccn4)cc3)c3c(N)nccn23)C1` (centres unmarked) [Example 244, 1-(8-amino-1-(4-(4-cyclopropylpyridin-2-ylcarbamoyl)phenyl)imidazo[1,5-a]pyrazin-3-yl)-N-methoxypiperidine-3-carboxamide, TFA salt] has an EC50 of less than 10 nM. `CCNC(=O)N1C[C@H](c2nc(-c3ccc(C(=O)Nc4cc(C(F)(F)F)ccn4)cc3)c3c(N)nccn23)CC[C@@H]1C` (relative stereo) [Example 201, (cis)-5-(8-amino-1-(4-(4-(trifluoromethyl)pyridin-2-ylcarbamoyl)phenyl)imidazo [1,5-a]pyrazin-3-yl)-N-ethyl-2-methylpiperidine-1-carboxamide, TFA salt] gave an EC50 of less than 10 nM. `Nc1nccn2c(N3CCC[C@@H](NC(=O)C4CC4)C3)nc(-c3ccc(C(=O)Nc4cc(C(F)(F)F)ccn4)cc3)c12` [Example 220, (R)-4-(8-amino-3-(3-(cyclopropanecarboxamido)piperidin-1-yl)imidazo[1,5-a]pyrazin-1-yl)-N-(4-(trifluoromethyl)pyridin-2-yl)benzamide] showed an EC50 of less than 10 nM.
